The text below walks through data of patent publication US12492195B2, “Preparation method for and crystal form of 3-aryloxy-3-five-membered heteroaryl-propylamine compound” (Zhangzhou Pien Tze Huang Pharmaceutical Co., Ltd., priority 2020, dated 2025).

In experiment [1] the target is T1, TRPV4 (Homo sapiens, UniProt Q9HBA0).
T1 construct: expressed in transfected cells
Put plainly: Manual patch clamp detection on TRPV4 channel. Type of experiment: cell-based. Conditions: 40.00 μM, positive compound. On the procedure: TRPV4 cells were cultured in a cell culture dish with a diameter of 35 mm, placed in an incubator in 5% CO2 at 37° C., and passaged at a ratio of 1:5 every 48 hours. The formula of medium was 90% DMEM (Invitrogen), 10% fetal bovine serum (Gibco), 2 mM L-glutamine, 50 μg/mL Hygromycin B (Invitrogen) and 5 μg/mL Blasticidine HCl (Invitrogen). Before electrophysiological patch clamp experiment, the cell culture medium was replaced with medium containing 1 μg/mL doxycycline for at least 16 hours to induce the expression of TRPV4.
(§1) On the day of the experiment, the cell culture medium was aspirated, the cell were rinsed once with extracellular fluid, and then 0.25% Trypsin-EDTA (Invitrogen) solution was added, and digested at room temperature for 1-2 minutes. The digestion solution was aspirated, the cell were resuspended with extracellular fluid, and transferred to the experimental dish for electrophysiological recording for further experiment. […]
(§2) HEK293 cells stably expressing TRP channels, the corresponding agonist-induced channel current was recorded by whole-cell patch clamp technique at room temperature. […] Clamp voltages and data recording were controlled and recorded by a computer using pClamp 11 software with the sampling frequency of 10 kHz and the filtering frequency of 2 kHz. […] After the current was evoked for more than 40 s and no attenuation was determined, the dosing process started. […]
For orientation: In patch-clamp work, channel activity is measured electrically.

The test system of experiment [2] is ICR mice. Put plainly: acetic acid writhing pain model in mice. Type of experiment: in vivo. Conditions: 10 mg/kg intragastric, acetic acid 1 h after administration. On the procedure:
Male ICR mice, weighed 22-25 g, were fasted but allowed to drink water freely for 2 h before administration. All ICR mice were weighed and grouped randomly, and the number of animals in each group was greater than 10. […] […] The drug was administrated intragastrically based on the weight of mice. 1.5% acetic acid solution (0.1 ml/10 g) was injected intraperitoneally 1 hour after administration, and the frequency of visceral pain in each group of mice within 30 min was observed. When concave abdomen, stretched trunk and hind paw, and high buttocks appeared, one number point was recorded. Finally, the number of appearance of the above phenomenon was counted within 30 minutes.
Background: An intraperitoneal irritant provokes the stretching counted in writhing tests.

The target of experiment [3] is T2, TRPA1 (Mus musculus, UniProt Q8BLA8).
T2 construct: expressed in transfected cells
T2 sequence (Q8BLA8 whole entry): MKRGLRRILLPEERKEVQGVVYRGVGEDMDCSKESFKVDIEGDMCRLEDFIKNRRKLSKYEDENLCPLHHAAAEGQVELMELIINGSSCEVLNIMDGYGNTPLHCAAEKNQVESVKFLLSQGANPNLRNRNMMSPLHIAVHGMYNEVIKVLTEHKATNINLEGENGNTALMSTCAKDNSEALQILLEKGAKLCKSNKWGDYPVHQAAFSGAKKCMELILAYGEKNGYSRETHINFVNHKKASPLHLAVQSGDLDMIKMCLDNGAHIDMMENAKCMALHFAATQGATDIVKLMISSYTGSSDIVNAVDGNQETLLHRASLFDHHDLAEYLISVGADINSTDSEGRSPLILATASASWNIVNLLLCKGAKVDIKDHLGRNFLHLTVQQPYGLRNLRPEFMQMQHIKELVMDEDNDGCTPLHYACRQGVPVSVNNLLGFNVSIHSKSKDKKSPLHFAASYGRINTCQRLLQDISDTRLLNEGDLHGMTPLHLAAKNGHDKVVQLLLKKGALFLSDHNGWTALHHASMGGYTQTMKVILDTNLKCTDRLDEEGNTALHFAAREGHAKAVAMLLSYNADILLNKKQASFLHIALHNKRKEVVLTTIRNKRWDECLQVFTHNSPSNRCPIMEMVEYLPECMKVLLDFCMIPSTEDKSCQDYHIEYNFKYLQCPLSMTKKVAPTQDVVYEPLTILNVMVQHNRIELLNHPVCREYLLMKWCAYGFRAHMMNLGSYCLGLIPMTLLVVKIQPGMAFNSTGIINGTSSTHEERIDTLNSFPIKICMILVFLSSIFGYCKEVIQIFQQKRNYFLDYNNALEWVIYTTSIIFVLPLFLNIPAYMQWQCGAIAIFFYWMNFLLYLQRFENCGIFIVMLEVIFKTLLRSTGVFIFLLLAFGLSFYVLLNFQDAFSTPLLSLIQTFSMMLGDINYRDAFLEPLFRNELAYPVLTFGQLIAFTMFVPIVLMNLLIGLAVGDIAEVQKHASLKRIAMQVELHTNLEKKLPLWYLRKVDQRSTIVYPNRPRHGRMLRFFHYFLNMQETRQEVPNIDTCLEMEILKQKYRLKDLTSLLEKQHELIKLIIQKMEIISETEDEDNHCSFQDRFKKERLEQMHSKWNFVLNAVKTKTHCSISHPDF
Nature of the experiment: IonWorks Barracuda (IWB) automated patch clamp detection of TRPA1 inhibitory activity. Type of experiment: cell-based. Conditions: HEK293 cells stably expressing TRPA1, AITC-induced current. As to the method:
IonWorks Barracuda (IWB) automated patch clamp detection was used as test method: HEK293 cells stably expressing TRPA1 were placed in the T175 culture flask with DMEM medium containing 15 μg/mL Blasticidin S HCl, 200 μg/mL Hygromycin B and 10% FBS, and cultured in an incubator in 5% CO2 at 37° C. When the cell density reached about 80%, the culture medium was removed, the residue was rinsed once with phosphate buffered saline (PBS) without calcium and magnesium. 3 mL of Trypsin was added to digest for 2 min, 7 mL of culture medium was added to terminate the digestion. The cells were collected to 15 mL centrifuge tube and centrifuged at 800 rpm for 3 min. After the supernatant was removed, the cells were added to appropriate volume of extracellular fluid for re-suspending, and the cell density was controlled at 2-3×10^6/mL for IWB experiment. The formulation of extracellular fluid (in mM) was 140 NaCl, 5 KCl, 1 MgCl2, 10 HEPES, 0.5 EGTA, 10 Glucose (pH 7.4); the formulation of intracellular fluid (in mM) was 140 CsCl, 10 HEPES, 5 EGTA, 0.1 CaCl2), 1 MgCl2 (pH 7.2). 28 mg/mL of amphotericin B was freshly prepared with DMSO on the day of experiment, and then final concentration of 0.1 mg/mL of that was prepared with intracellular fluid.
Population patch clamp (PPC) plate was used in IWB experiment. The entire detection process was automatically carried out by the instrument. […]
The record of data and the export of current amplitude measurement were carried out by IWB software (version 2.5.3, Molecular Devices Corporation. Union City, CA). No statistics was recorded for wells with sealing impedance lower than 20 MΩ. […] TRPA1 current amplitude was measured at ±100 mV. […] The dose-effect curve of compounds and IC50 were fitted and calculated by GraphPad Prism 5.02 (GraphPad Software, San Diego, CA).

Experiment [4] has as its target T3, TRPV1 (Homo sapiens, UniProt Q8NER1).
T3 construct: expressed in transfected cells
Nature of the experiment: Manual patch clamp detection on TRPV1 channel. Conditions: HEK293, Capsaicin-induced current. Type of experiment: cell-based. As to the method: TRPV1 cells were cultured in a cell culture dish with a diameter of 35 mm, placed in a 37° C., 5% CO2 incubator, and passaged at a ratio of 1:5 every 48 hours. Medium formula: 90% DMEM (Invitrogen), 10% Fetal bovine serum (Gibco). 2 mM L-glutamine, 50 μg/mL Hygromycin B (Invitrogen) and 5 μg/mL Blasticidine HCl (Invitrogen). Before electrophysiological patch clamp experiments, the cell culture medium was replaced with medium containing 1 μg/mL Doxycycline for at least 16 hours to induce the expression of TRPV1.
as §1, §2

Experiment [5] concerns C57 mice. Put plainly: hot plate pain model in mice. Type of experiment: in vivo. Conditions: 10 mg/kg intraperitoneal, hot plate 55° C. As to the method:
SPF-grade C57 male mice were placed at hot plate with constant 55±0.1° C. […] If the pain reaction of mice was observed, the mice were taken out immediately to prevent mice from scalding. […] Appropriate amount of test compounds were added into required volume of physiological saline and fully suspended, and the concentration of the drug compound was prepared as 1 mg/ml. The standard volume of administration to mice was 10 ml/kg (or 0.1 ml/10 g). The administration mode was intraperitoneal administration. […] The administration volume was 10 ml/kg. […] Hot plate observation indicator is the time latency of mice on the hot plate at 55±0.1° C. Measurement and recording were conducted at 3 h before administration and 15 min, 30 min, and 60 min after administration. Maximum possible effect (MPE) % was used to evaluate analgesic effect of each compound, i.e., MPE %=[(Post drug latency-baseline latency)/(30-baseline latency)]×100. MPE % at different time points was recorded. The higher the value of MPE % was, the stronger the analgesic effect of the compound was.

Experiment [6] concerns the target T4, TRPM8 (Homo sapiens, UniProt Q7Z2W7).
T4 construct: expressed in transfected cells
Nature of the experiment: Manual patch clamp detection on TRPM8 channel. Type of experiment: cell-based. Conditions: 20.00 μM, positive compound. As to the method: TRPM8 cells were cultured in a cell culture dish with a diameter of 35 mm, placed in an incubator in 5% CO2 at 37° C., and passaged at a ratio of 1:5 every 48 hours. The formula of medium was 90% DMEM (Invitrogen), 10% fetal bovine serum (Gibco), 2 mM L-glutamine, 50 μg/mL Hygromycin B (Invitrogen) and 5 μg/mL Blasticidine HCl (Invitrogen). Before electrophysiological patch clamp experiment, the cell culture medium was replaced with medium containing 1 μg/mL doxycycline for at least 16 hours to induce TRPM8 expression.
On the day of the experiment, the cell culture medium was aspirated, the cell were rinsed once with extracellular fluid, and then 0.25% Trypsin-EDTA (Invitrogen) solution was added, and digested at room temperature for 1-2 minutes. The digestion solution was aspirated, the cell were resuspended with extracellular fluid, and transferred to the experimental dish for electrophysiological recording for further experiment.
Preparation of menthol: 100.00 mM of DMSO stock solution of menthol was added to the extracellular solution, diluting 1000-fold to 100.00 μM of menthol solution.
Preparation of AMTB: 5 μL of DMSO stock solution (20.00 mM) of AMTB was added to 4995 μL of menthol solution (100.00 uM), diluting 1000-fold to obtain the final concentration of 20.00 μM AMTB to be tested.
Preparation of IC-1: 20.00 mM or 10.00 mM of stock solution of IC-1 was taken and added to the agonist solution of the corresponding channel, diluting 1000 or 2000-fold to the final concentration of 10.00 μM of […] solution to be tested.
as §2

In experiment [7] the test system is SD rats. Put plainly: SNL model in rats, mechanical hyperalgesia test. Conditions: 100 mg/kg by gavage, 1 hour after administration. Type of experiment: in vivo. On the procedure:
Male SPF grade SD rats, weighed 150-180 g, were selected. Aseptic operation during surgery was performed. The animals were anesthetized with sodium pentobarbital (50 mg/kg, intraperitoneal injection). The surgical area of animal waist was shaved and the skin was disinfected three times with iodophor and 70% ethanol. After the skin was dried, the operation was started. Surgical knife was used to make a longitudinal incision at the back of the sacrum of the animal waist to expose the left paraspinal muscles, and distractor was used to separate muscle tissue to expose the spine. The left spinal nerves L5 and L6 were separated and ligated with a 6-0 silk thread, and the wound was sutured. […]
The animals were weighed to calculate the dosage. […] During the test, rapid paw withdrawal of animal was recorded as pain response. When the test fiber was removed from animal skin, the paw withdrawal of animal was also recorded as pain response. If animal moved or walked, the pain response was not recorded and the test was repeated. […]
Mechanical hyperalgesia was expressed as paw withdrawal threshold (PWT) in rat behavioral test, which was calculated with the following formula: 50% response threshold (g)=(10^(Xf+k))/10,000; • Xf=the final test fiber value used in the test; • k=table value; • =mean difference

Where only a bound is given, the exact number is not on record here.

T4 sequence (Q7Z2W7 whole entry, species assumed): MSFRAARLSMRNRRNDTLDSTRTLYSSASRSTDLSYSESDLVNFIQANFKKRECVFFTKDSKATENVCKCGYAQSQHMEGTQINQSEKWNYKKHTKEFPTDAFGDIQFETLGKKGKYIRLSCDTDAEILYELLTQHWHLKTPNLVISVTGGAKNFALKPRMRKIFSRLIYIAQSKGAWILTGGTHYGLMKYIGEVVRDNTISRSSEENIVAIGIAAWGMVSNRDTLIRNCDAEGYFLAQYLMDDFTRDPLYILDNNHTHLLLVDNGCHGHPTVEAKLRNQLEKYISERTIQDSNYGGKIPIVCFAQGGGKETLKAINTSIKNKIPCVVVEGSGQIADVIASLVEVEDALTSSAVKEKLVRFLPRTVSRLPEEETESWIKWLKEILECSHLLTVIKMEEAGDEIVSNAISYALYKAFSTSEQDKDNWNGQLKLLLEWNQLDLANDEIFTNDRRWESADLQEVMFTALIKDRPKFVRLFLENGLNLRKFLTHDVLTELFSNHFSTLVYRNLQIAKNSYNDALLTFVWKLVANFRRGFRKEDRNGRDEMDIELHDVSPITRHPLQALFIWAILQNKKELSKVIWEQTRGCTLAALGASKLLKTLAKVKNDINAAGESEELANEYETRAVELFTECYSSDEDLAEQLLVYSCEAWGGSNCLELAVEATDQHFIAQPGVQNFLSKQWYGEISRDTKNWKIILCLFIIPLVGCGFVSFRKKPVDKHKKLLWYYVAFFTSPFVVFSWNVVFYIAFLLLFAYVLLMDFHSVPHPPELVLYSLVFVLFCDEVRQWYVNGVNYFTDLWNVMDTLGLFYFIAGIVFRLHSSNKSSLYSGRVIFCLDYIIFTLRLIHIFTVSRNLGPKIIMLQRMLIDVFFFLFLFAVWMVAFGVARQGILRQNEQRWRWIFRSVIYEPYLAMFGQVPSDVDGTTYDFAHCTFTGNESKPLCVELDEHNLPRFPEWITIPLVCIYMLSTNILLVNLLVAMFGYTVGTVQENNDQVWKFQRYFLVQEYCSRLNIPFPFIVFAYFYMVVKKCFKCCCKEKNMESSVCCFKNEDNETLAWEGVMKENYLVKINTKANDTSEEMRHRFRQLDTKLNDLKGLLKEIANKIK
T1 sequence (Q9HBA0 whole entry, species assumed): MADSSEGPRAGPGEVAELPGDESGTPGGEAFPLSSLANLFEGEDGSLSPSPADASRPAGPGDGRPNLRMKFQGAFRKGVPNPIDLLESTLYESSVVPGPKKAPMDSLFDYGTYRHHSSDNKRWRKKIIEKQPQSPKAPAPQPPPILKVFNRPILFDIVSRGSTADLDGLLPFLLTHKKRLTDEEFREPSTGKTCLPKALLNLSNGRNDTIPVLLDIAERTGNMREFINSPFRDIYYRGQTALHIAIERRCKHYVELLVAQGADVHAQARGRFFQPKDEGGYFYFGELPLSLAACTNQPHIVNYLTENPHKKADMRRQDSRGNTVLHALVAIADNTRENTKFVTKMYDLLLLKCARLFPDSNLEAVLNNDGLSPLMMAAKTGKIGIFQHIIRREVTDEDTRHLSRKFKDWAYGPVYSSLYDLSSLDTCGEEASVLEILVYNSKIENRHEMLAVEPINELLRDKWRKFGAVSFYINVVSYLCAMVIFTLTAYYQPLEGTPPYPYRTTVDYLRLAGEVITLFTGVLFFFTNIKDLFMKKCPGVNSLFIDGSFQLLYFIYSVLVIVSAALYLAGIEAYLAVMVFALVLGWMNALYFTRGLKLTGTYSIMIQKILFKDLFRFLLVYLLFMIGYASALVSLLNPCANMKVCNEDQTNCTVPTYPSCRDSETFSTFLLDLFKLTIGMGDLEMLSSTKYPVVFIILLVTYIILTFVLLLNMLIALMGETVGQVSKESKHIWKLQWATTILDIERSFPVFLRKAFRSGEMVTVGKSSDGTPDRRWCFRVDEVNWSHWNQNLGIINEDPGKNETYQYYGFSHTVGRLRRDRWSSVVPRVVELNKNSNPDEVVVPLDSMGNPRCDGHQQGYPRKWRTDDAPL
T3 sequence (Q8NER1 whole entry, species assumed): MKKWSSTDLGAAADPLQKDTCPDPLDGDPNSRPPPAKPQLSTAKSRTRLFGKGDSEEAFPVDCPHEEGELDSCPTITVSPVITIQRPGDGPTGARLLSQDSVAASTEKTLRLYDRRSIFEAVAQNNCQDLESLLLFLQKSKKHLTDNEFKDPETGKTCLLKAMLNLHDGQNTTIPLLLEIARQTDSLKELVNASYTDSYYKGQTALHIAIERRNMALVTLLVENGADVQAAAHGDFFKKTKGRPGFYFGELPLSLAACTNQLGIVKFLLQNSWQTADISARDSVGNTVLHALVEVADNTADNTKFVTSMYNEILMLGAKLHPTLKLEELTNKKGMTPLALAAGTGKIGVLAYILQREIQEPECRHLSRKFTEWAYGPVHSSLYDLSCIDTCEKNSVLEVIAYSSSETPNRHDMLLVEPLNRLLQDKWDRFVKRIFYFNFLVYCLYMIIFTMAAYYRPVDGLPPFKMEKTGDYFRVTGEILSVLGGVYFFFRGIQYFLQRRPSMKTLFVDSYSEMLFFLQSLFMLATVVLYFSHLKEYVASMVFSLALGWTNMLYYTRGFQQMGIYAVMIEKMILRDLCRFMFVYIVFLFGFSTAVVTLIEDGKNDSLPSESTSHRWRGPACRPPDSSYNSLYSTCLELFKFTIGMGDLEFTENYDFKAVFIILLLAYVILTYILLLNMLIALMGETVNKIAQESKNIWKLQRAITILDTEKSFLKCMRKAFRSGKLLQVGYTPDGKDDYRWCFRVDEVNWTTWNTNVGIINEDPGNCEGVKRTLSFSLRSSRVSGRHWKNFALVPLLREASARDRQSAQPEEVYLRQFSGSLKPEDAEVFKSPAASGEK

In the case of `N.N.N.N.N.N.N.N.N.N.N.N.N.N.[Cl-].[Cl-].[Cl-].[Cl-].[Cl-].[Cl-].[O-2].[O-2].[Ru+3].[Ru+3].[Ru+4]` [RR, Ruthenium Red, reference compound], the “Inhibition % of TRPV4 current” value in experiment [1] is given as “over 90%”.
Regarding `CN1[C@H]2C[C@H](OC(=O)[C@H](CO)c3ccccc3)C[C@@H]1[C@@H](O)C2` [anisodamine, reference compound], in experiment [2], the “frequency of writhing response within 30 min” value was found to be 27 times.
For the compound `CNCC[C@H](Oc1cccc2c1CCC2)c1ccccc1` [Compound C1], in experiment [3], the IC50 (commonly the concentration that inhibits the measured activity by half) was in the range of 20 to 50 µM.
Turning to `Oc1cc2c(cc1O)CN(C(=S)NCCc1ccc(Cl)cc1)CCC2` [Capsazepine, reference compound], the inhibition (commonly the drop in the measured response relative to a control, in per cent) at 10 µM in experiment [4] is greater than 90%.
`NCC[C@H](Oc1cccc2ccoc12)c1cccs1` [IC-23, (S)-3-(benzofuran-7-yloxy)-3-(thiophen-2-yl)propan-1-amine]: in experiment [5], the “analgesic activity compared with the positive controls gabapentin and duloxetine” value is on record as “significantly stronger than that of 100 mg/kg of gabapentin”. The “analgesic effect (MPE %) compared with the saline control group” value in experiment [5] (within 60 min) is “very potent analgesic effect”.
On to `Cc1cccc(COc2ccccc2C(=O)N(CCCN)Cc2cccs2)c1` [AMTB, reference compound], for which the “Inhibition % of TRPM8 current” value in experiment [6] is reported as “over 90%”.
With `NCC1(CC(=O)O)CCCCC1` [Gabapentin, reference compound], in experiment [7], the “PWT” value came out at 6.352 ± 1.897 g.
